Test results as given in ChEMBL document CHEMBL1201862, “PubChem BioAssay data set” (2004).
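Dose response: 5 concentrations. Exposure: 48 h. Format: 96-well plates. Endpoint: linear interpolation; highest concentration if not reached. At the GI50, growth is halved.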 Active and inactive are the calls of the source. Cut-off read from the data, not from the text of the source: active = GI50 up to about 1.1 µM and inactive = higher.

Tests used:
Assay in all cases: NCI tumour cell line growth inhibition, 48 h
ACHN = system: ACHN
HOP-92 = system: HOP-92
UACC-62 = system: UACC-62
UACC-257 = system: UACC-257
U-251 = system: U-251
COLO 205 = system: COLO 205
M14 = system: M14
MDA-MB-231 = system: MDA-MB-231
786-0 = system: 786-0
Malme-3M = system: Malme-3M
HCT-116 = system: HCT-116
SN12C = system: SN12C
NCI-H23 = system: NCI-H23
NCI-H226 = system: NCI-H226
MDA-N = system: MDA-N
SK-MEL-2 = system: SK-MEL-2
CCRF-CEM = system: CCRF-CEM
A498 = system: A498
DU-145 = system: DU-145
HCC 2998 = system: HCC 2998

Row | Structure (SMILES) | GI50 (ACHN) | GI50 (HOP-92) | GI50 (UACC-62) | GI50 (UACC-257) | GI50 (U-251) | GI50 (COLO 205) | GI50 (M14) | GI50 (MDA-MB-231) | GI50 (786-0) | GI50 (Malme-3M) | GI50 (HCT-116) | GI50 (SN12C) | GI50 (NCI-H23) | GI50 (NCI-H226) | GI50 (MDA-N) | GI50 (SK-MEL-2) | GI50 (CCRF-CEM) | GI50 (A498) | GI50 (DU-145) | GI50 (HCC 2998)
1 | Sc1nnc(SCc2ccccc2Cl)c2nc[nH]c12 | > 100 µM (inactive) | > 100 µM (inactive) | > 100 µM (inactive) | > 100 µM (inactive) | > 100 µM (inactive) | > 100 µM (inactive) | > 100 µM (inactive) | > 100 µM (inactive) | > 100 µM (inactive) | > 100 µM (inactive) | > 100 µM (inactive) | > 100 µM (inactive) | > 100 µM (inactive) | > 100 µM (inactive) | > 100 µM (inactive) | > 100 µM (inactive) | > 100 µM (inactive) | > 100 µM (inactive) | > 100 µM (inactive) | –
2 | CCNC(=O)c1c(O)nc2ccccc2c1O | 40.5 µM (inactive) | 75.3 µM (inactive) | – | > 100 µM (inactive) | 29.5 µM (inactive) | 56.9 µM (inactive) | – | 67.5 µM (inactive) | 67.3 µM (inactive) | > 100 µM (inactive) | 51.1 µM (inactive) | 67.6 µM (inactive) | > 100 µM (inactive) | > 100 µM (inactive) | 84.9 µM (inactive) | – | 52.2 µM (inactive) | > 100 µM (inactive) | 80.9 µM (inactive) | > 100 µM (inactive)
3 | CC(=O)O[C@H]1CC[C@@]2(C)C(=CC[C@@H]3[C@@H]2CC[C@](C)(c2nnc(C)o2)[C@H]3CC#N)C1 | > 100 µM (inactive) | > 100 µM (inactive) | > 100 µM (inactive) | > 100 µM (inactive) | > 100 µM (inactive) | > 100 µM (inactive) | > 100 µM (inactive) | > 100 µM (inactive) | > 100 µM (inactive) | > 100 µM (inactive) | > 100 µM (inactive) | > 100 µM (inactive) | > 100 µM (inactive) | > 100 µM (inactive) | > 100 µM (inactive) | > 100 µM (inactive) | > 100 µM (inactive) | > 100 µM (inactive) | > 100 µM (inactive) | –
4 | O=C(/C=C/c1ccc(OCc2cccc(Cl)c2)cc1)NO | 11.3 µM (inactive) | 14.1 µM (inactive) | 13.1 µM (inactive) | 38 µM (inactive) | 15 µM (inactive) | 14 µM (inactive) | 21 µM (inactive) | 19.7 µM (inactive) | 10.7 µM (inactive) | – | 11.5 µM (inactive) | 20.6 µM (inactive) | 11.2 µM (inactive) | 14 µM (inactive) | 18.6 µM (inactive) | 18 µM (inactive) | 2.65 µM (inactive) | 12.1 µM (inactive) | 15.3 µM (inactive) | 14.2 µM (inactive)
5 | O=c1cc(-c2ccncc2)[nH]c2cc3c(cc12)OCO3 | > 100 µM (inactive) | > 100 µM (inactive) | > 100 µM (inactive) | > 100 µM (inactive) | > 100 µM (inactive) | > 100 µM (inactive) | > 100 µM (inactive) | > 100 µM (inactive) | 64.6 µM (inactive) | – | 97.3 µM (inactive) | > 100 µM (inactive) | > 100 µM (inactive) | > 100 µM (inactive) | > 100 µM (inactive) | > 100 µM (inactive) | – | > 100 µM (inactive) | > 100 µM (inactive) | > 100 µM (inactive)
6 | COc1ccccc1Cc1ccc(C2C=CC3(CC(=O)C=C3C)C(=O)C2)o1 (stereo not drawn) | 33 µM (inactive) | 20.5 µM (inactive) | 13.9 µM (inactive) | 22.4 µM (inactive) | 16.3 µM (inactive) | 23.2 µM (inactive) | 32.1 µM (inactive) | 21 µM (inactive) | 20.2 µM (inactive) | 17.9 µM (inactive) | 27.2 µM (inactive) | 22 µM (inactive) | 21 µM (inactive) | 25.6 µM (inactive) | 18.5 µM (inactive) | 14.7 µM (inactive) | – | 20 µM (inactive) | 29.4 µM (inactive) | 28.1 µM (inactive)
7 | C[N+]1(C)C/C(=C\C=C\c2ccccc2)C(=O)/C(=C/C=C/c2ccccc2)C1 | 49.7 µM (inactive) | 17.9 µM (inactive) | 3.46 µM (inactive) | 8.39 µM (inactive) | 3.89 µM (inactive) | 0.773 µM (active) | 16.3 µM (inactive) | 10.4 µM (inactive) | 17.8 µM (inactive) | 16 µM (inactive) | 9.48 µM (inactive) | 7.69 µM (inactive) | 9.71 µM (inactive) | 22.3 µM (inactive) | 4.48 µM (inactive) | 17 µM (inactive) | 1.78 µM (inactive) | 60.1 µM (inactive) | 17.2 µM (inactive) | 8.55 µM (inactive)
8 | N#CCCN(CCCN(CCCN(C(=O)Nc1ccccc1)c1ccccc1)C(=O)Nc1ccccc1)C(=O)Nc1ccccc1 | > 8.75 µM (inactive) | 20.2 µM (inactive) | > 8.75 µM (inactive) | > 8.75 µM (inactive) | > 100 µM (inactive) | > 8.75 µM (inactive) | > 8.75 µM (inactive) | > 8.75 µM (inactive) | > 8.75 µM (inactive) | > 8.75 µM (inactive) | > 8.75 µM (inactive) | > 8.75 µM (inactive) | – | 31.4 µM (inactive) | > 8.75 µM (inactive) | > 8.75 µM (inactive) | 6.14 µM (inactive) | > 8.75 µM (inactive) | > 8.75 µM (inactive) | > 100 µM (inactive)
9 | Cn1cc[n+](-c2cc(=O)n(C)c(=O)[n-]2)c1 | > 100 µM (inactive) | > 100 µM (inactive) | > 100 µM (inactive) | > 100 µM (inactive) | > 100 µM (inactive) | 96.4 µM (inactive) | > 100 µM (inactive) | > 100 µM (inactive) | > 100 µM (inactive) | > 100 µM (inactive) | > 100 µM (inactive) | > 100 µM (inactive) | > 100 µM (inactive) | 91.8 µM (inactive) | > 100 µM (inactive) | > 100 µM (inactive) | > 100 µM (inactive) | > 100 µM (inactive) | > 100 µM (inactive) | –
10 | Cc1nn(-c2ccccc2)c(C)c1/C=N/N=C1\S/C(=C\c2ccc(Cl)cc2)C(=O)N1c1ccccc1 | 68.7 µM (inactive) | 91 µM (inactive) | 16.8 µM (inactive) | > 100 µM (inactive) | 10.9 µM (inactive) | > 100 µM (inactive) | > 100 µM (inactive) | 34.7 µM (inactive) | 3.13 µM (inactive) | 28.1 µM (inactive) | 9.48 µM (inactive) | > 100 µM (inactive) | 7.38 µM (inactive) | > 100 µM (inactive) | 62.5 µM (inactive) | > 100 µM (inactive) | > 100 µM (inactive) | > 100 µM (inactive) | > 100 µM (inactive) | –
11 | COc1c2cc([N+](=O)[O-])cc1CN(C(=O)C(F)(F)F)CCOCCN(C(=O)C(F)(F)F)C2 | > 100 µM (inactive) | > 100 µM (inactive) | > 100 µM (inactive) | > 100 µM (inactive) | > 100 µM (inactive) | > 100 µM (inactive) | > 100 µM (inactive) | > 100 µM (inactive) | > 100 µM (inactive) | > 100 µM (inactive) | > 100 µM (inactive) | > 100 µM (inactive) | > 100 µM (inactive) | > 100 µM (inactive) | > 100 µM (inactive) | > 100 µM (inactive) | > 100 µM (inactive) | > 100 µM (inactive) | > 100 µM (inactive) | –
12 | COc1ccccc1C1(c2c(OC)c(=O)c2=O)SCCCS1 | > 100 µM (inactive) | 19.2 µM (inactive) | > 100 µM (inactive) | 85.1 µM (inactive) | > 100 µM (inactive) | > 100 µM (inactive) | > 100 µM (inactive) | 83.2 µM (inactive) | > 100 µM (inactive) | 62.5 µM (inactive) | > 100 µM (inactive) | 36.6 µM (inactive) | 48.3 µM (inactive) | 85.7 µM (inactive) | > 100 µM (inactive) | > 100 µM (inactive) | 82.6 µM (inactive) | 49 µM (inactive) | > 100 µM (inactive) | > 100 µM (inactive)
13 | O=C(O)C1(C(O)c2ccccc2)SCCCS1 (stereo not drawn) | > 10 µM (inactive) | > 10 µM (inactive) | > 10 µM (inactive) | > 10 µM (inactive) | > 10 µM (inactive) | – | > 10 µM (inactive) | > 10 µM (inactive) | > 10 µM (inactive) | > 10 µM (inactive) | > 10 µM (inactive) | > 10 µM (inactive) | > 10 µM (inactive) | > 10 µM (inactive) | > 10 µM (inactive) | > 10 µM (inactive) | > 10 µM (inactive) | > 10 µM (inactive) | > 10 µM (inactive) | –
14 | CCCC(=O)C1=C(O)C(Cc2c(O)c(C)c(O)c(C(=O)CCC)c2O)=C(O)C(C)(C)C1=O | > 50 µM (inactive) | 10.2 µM (inactive) | > 50 µM (inactive) | > 50 µM (inactive) | 22.9 µM (inactive) | 19.4 µM (inactive) | > 50 µM (inactive) | > 50 µM (inactive) | > 50 µM (inactive) | – | 12.6 µM (inactive) | > 50 µM (inactive) | 15.8 µM (inactive) | – | > 50 µM (inactive) | 22.4 µM (inactive) | 0.421 µM (active) | 46.8 µM (inactive) | > 50 µM (inactive) | 10.9 µM (inactive)
